Test results from the NIST ThermoML archive (doi:10.1016/j.jct.2018.09.037).
Several values for one entry are separate records, joined by “and”; a condition that tells them apart may be missing. Equal entries are not always repeated.

Assay: xn = mol fraction of the nth substance listed
Conditions: 100 kPa, Liquid, Electromagnetic levitation / mass taken directly, volume taken from sample image

[Pd] [palladium] + [Fe]
Conditions | mass density
1414 K, x1 = 0.6 | 8979 kg/m3
1437 K, x1 = 0.6 | 8950 kg/m3
1440 K, x1 = 0.8 | 9717 kg/m3
1476 K, x1 = 0.6 | 8899 kg/m3
1483 K, x1 = 0.6 | 8904 kg/m3
1483 K, x1 = 0.8 | 9676 kg/m3
1500 K, x1 = 0.4 | 8297 kg/m3
1512 K, x1 = 0.4 | 8275 kg/m3
1536 K, x1 = 0.6 | 8856 kg/m3
1543 K, x1 = 0.8 | 9619 kg/m3
1551 K, x1 = 0.6 | 8825 kg/m3
1562 K, x1 = 0.4 | 8208 kg/m3
1590 K, x1 = 0.6 | 8791 kg/m3
1598 K, x1 = 0.8 | 9769 kg/m3
1613 K, x1 = 0.6 | 8779 kg/m3
1613 K, x1 = 0.8 | 9499 kg/m3
1624 K, x1 = 0.8 | 9547 kg/m3
1625 K, x1 = 0.4 | 8150 kg/m3
1625 K, x1 = 0.8 | 9735 kg/m3
1630 K, x1 = 0.2 | 7824 kg/m3
1633 K, x1 = 0.6 | 8756 kg/m3
1651 K, x1 = 0.2 | 7615 kg/m3
1663 K, x1 = 0.6 | 8735 kg/m3
1665 K, x1 = 0.8 | 9694 kg/m3
1667 K, x1 = 0.6 | 8709 kg/m3
1668 K, x1 = 0.2 | 7805 kg/m3
1672 K, x1 = 0.8 | 9450 kg/m3
1681 K, x1 = 0.2 | 7789 kg/m3 and 7591 kg/m3
1707 K, x1 = 0.8 | 9656 kg/m3
1711 K, x1 = 0.4 | 8076 kg/m3
1713 K, x1 = 0.2 | 7775 kg/m3
1715 K, x1 = 0.6 | 8695 kg/m3
1721 K, x1 = 0.2 | 7550 kg/m3
1725 K, x1 = 0.6 | 8660 kg/m3
1742 K, x1 = 0.2 | 7739 kg/m3
1749 K, x1 = 0.8 | 9379 kg/m3
1767 K, x1 = 0.8 | 9602 kg/m3
1772 K, x1 = 0.2 | 7506 kg/m3
1789 K, x1 = 0.6 | 8633 kg/m3
1790 K, x1 = 1 | 10670 kg/m3
1795 K, x1 = 1 | 10672 kg/m3
1796 K, x1 = 1 | 10652 kg/m3
1802 K, x1 = 1 | 10686 kg/m3
1809 K, x1 = 1 | 10670 kg/m3
1820 K, x1 = 1 | 10677 kg/m3
1829 K, x1 = 0.4 | 7971 kg/m3
1831 K, x1 = 1 | 10627 kg/m3
1832 K, x1 = 0.4 | 7965 kg/m3
1832 K, x1 = 0.8 | 9536 kg/m3
1838 K, x1 = 0.2 | 7700 kg/m3
1841 K, x1 = 0.8 | 9278 kg/m3
1843 K, x1 = 1 | 10654 kg/m3
1856 K, x1 = 1 | 10601 kg/m3
1864 K, x1 = 0.2 | 7646 kg/m3
1872 K, x1 = 0.2 | 7426 kg/m3
1878 K, x1 = 1 | 10558 kg/m3
1879 K, x1 = 0.6 | 8530 kg/m3
1889 K, x1 = 0.6 | 8544 kg/m3
1889 K, x1 = 1 | 10592 kg/m3
1890 K, x1 = 1 | 10575 kg/m3
1916 K, x1 = 0.8 | 9434 kg/m3
1917 K, x1 = 1 | 10529 kg/m3
1935 K, x1 = 1 | 10478 kg/m3
1951 K, x1 = 1 | 10465 kg/m3
